According to the NIST ThermoML archive (doi:10.1021/je400529k):

Key:
[1] = refractive index (Na D-line) (dimensionless); xn = mol fraction of the nth substance listed; details: 101 kPa, Liquid, Standard Abbe refractometry
[2] = xn = mol fraction of the nth substance listed; details: 101 kPa, Liquid; for viscosity: Capillary tube (Ostwald / Ubbelohde) method; for mass density: Vibrating tube method

C1C[C@@H]2[C@H]3CC[C@H](C3)[C@@H]2C1 [exo-tetrahydrodicyclopentadiene] + CCCCC1CCCCC1
Details	mass density, [2] [kg/m3]	refractive index, [1]	viscosity, [2] [mPa·s]
293.15 K, x1 = 0.1	811.06	1.444	1.391
293.15 K, x1 = 0.1993	822.96	1.4478	1.49
293.15 K, x1 = 0.2997	835.42	1.4521	1.602
293.15 K, x1 = 0.3991	848.2	1.4568	1.732
293.15 K, x1 = 0.5002	861.66	1.4613	1.879
293.15 K, x1 = 0.6005	875.49	1.466	2.044
293.15 K, x1 = 0.7	889.72	1.4712	2.234
293.15 K, x1 = 0.8004	904.57	1.4766	2.446
293.15 K, x1 = 0.8999	919.8	1.4818	2.688
293.15 K, x1 = 1	935.72	1.4874	2.992
298.15 K, x1 = 0.1	807.31	–	1.279
298.15 K, x1 = 0.1993	819.19	–	1.367
298.15 K, x1 = 0.2997	831.63	–	1.467
298.15 K, x1 = 0.3991	844.39	–	1.584
298.15 K, x1 = 0.5002	857.83	–	1.715
298.15 K, x1 = 0.6005	871.64	–	1.863
298.15 K, x1 = 0.7	885.86	–	2.032
298.15 K, x1 = 0.8004	900.7	–	2.224
298.15 K, x1 = 0.8999	915.95	–	2.438
298.15 K, x1 = 1	931.84	–	2.71
303.15 K, x1 = 0.1	803.53	1.4393	1.181
303.15 K, x1 = 0.1993	815.39	1.4435	1.261
303.15 K, x1 = 0.2997	827.82	1.448	1.351
303.15 K, x1 = 0.3991	840.57	1.4522	1.456
303.15 K, x1 = 0.5002	853.98	1.457	1.574
303.15 K, x1 = 0.6005	867.78	1.4619	1.707
303.15 K, x1 = 0.7	881.99	1.4669	1.858
303.15 K, x1 = 0.8004	896.81	1.4718	2.031
303.15 K, x1 = 0.8999	912.05	1.4774	2.223
303.15 K, x1 = 1	927.94	1.4831	2.467
308.15 K, x1 = 0.1	799.75	–	1.096
308.15 K, x1 = 0.1993	811.6	–	1.168
308.15 K, x1 = 0.2997	824.01	–	1.249
308.15 K, x1 = 0.3991	836.73	–	1.344
308.15 K, x1 = 0.5002	850.13	–	1.451
308.15 K, x1 = 0.6005	863.92	–	1.571
308.15 K, x1 = 0.7	878.11	–	1.707
308.15 K, x1 = 0.8004	892.92	–	1.862
308.15 K, x1 = 0.8999	908.14	–	2.036
308.15 K, x1 = 1	924.02	–	2.255
313.15 K, x1 = 0.1	795.96	1.435	1.02
313.15 K, x1 = 0.1993	807.79	1.4391	1.085
313.15 K, x1 = 0.2997	820.18	1.4435	1.159
313.15 K, x1 = 0.3991	832.89	1.448	1.245
313.15 K, x1 = 0.5002	846.27	1.4524	1.342
313.15 K, x1 = 0.6005	860.05	1.4575	1.451
313.15 K, x1 = 0.7	874.22	1.4626	1.573
313.15 K, x1 = 0.8004	889.02	1.4677	1.715
313.15 K, x1 = 0.8999	904.23	1.4728	1.872
313.15 K, x1 = 1	920.11	1.4786	2.069
318.15 K, x1 = 0.1	792.17	–	0.952
318.15 K, x1 = 0.1993	803.98	–	1.012
318.15 K, x1 = 0.2997	816.35	–	1.079
318.15 K, x1 = 0.3991	829.04	–	1.157
318.15 K, x1 = 0.5002	842.41	–	1.246
318.15 K, x1 = 0.6005	856.16	–	1.345
318.15 K, x1 = 0.7	870.32	–	1.456
318.15 K, x1 = 0.8004	885.11	–	1.585
318.15 K, x1 = 0.8999	900.32	–	1.727
318.15 K, x1 = 1	916.18	–	1.907
